Legend:
Type in all cases: in vivo
[1] = system: sensory panel; test: Taste in water by a sensory panel
[2] = system: sensory panel; test: Salt enhancement in 0.5% NaCl aqueous solution, sensory panel; conditions: 0.5% NaCl aq. solution with 50 ppm compound, compared with 0.5% NaCl alone
Description: The solutions were tasted by a sensory panel. Solution A was describes as “salty”.
Aqueous solutions comprising 0.5% NaCl and 50 ppm of the compounds of example 2-21, respectively, have been prepared and tasted by a sensory panel in comparison with an aqueous solution comprising 0.5% NaCl.
Aqueous solutions comprising 0.5% NaCl and 50 ppm of the compounds of example 38-58, respectively, have been prepared and tasted by a sensory panel in comparison with an aqueous solution comprising 0.5% NaCl.

[3] = system: sensory panel; test: Salt enhancement in 0.3% NaCl solution at different concentrations, sensory panel
[4] = system: sensory panel; test: Umami enhancement in savoury model solution (NaCl, MSG, Ribotides), sensory panel; conditions: 0.5% NaCl, 0.03% MSG, 0.007% Ribotides with 50 ppm compound, compared with solution A without compound
Description: The solutions were tasted by a sensory panel. Solution A is a model solution for savoury taste, containing MSG (monosodium glutamate) and Ribotides (IMP/GMP, 50/50 mixture) as savoury taste enhancer.
Two aqueous solutions have been prepared: • A) 0.5% NaCl, 0.03% MSG, 0.007% Ribotides, and • B) 0.5% NaCl, 0.03% MSG, 0.007% Ribotides and 50 ppm of the compound of example 38-58, respectively.

[5] = system: sensory panel; test: Bitter masking in 0.3% KCl solution, sensory panel; conditions: 0.3% KCl with 50 ppm compound, compared with 0.3% KCl alone
Description: (§1) The solutions were tasted by a sensory panel.

[6] = system: sensory panel; test: Effect on model broth base, sensory panel; conditions: model broth base with 0.3% NaCl, 50 ppm compound
Description: A model broth base, comprising 0.3% of NaCl was compared with a sample further comprising 50 ppm of the compound of example 1.
as §1

[7] = system: sensory panel; test: Effect on cheese sauce, sensory panel; conditions: 50 ppm compound
Description: The effect of the compound of example 1 on cheese sauce was explored. Therefore, a cheese sauce has been compared by a sensory panel with a sample of the sauce further comprising 50 ppm of the compound of example 1.

[8] = system: sensory panel; test: Effect on potato chips, sensory panel; conditions: potato chips with 1.5% salt, 70 ppm compound
Description: Potato chips with 1.5% salt have been tasted by a sensory panel with and without additional compound of example 1.

[9] = system: sensory panel; test: Effect on mayonnaise, sensory panel; conditions: commercially available mayonnaise, 70 ppm compound
Description: Samples of commercially available mayonnaise with and without addition of the compound of example 1 have been compared by a sensory panel.

[10] = system: sensory panel; test: Effect on corn curls with cheese flavor, sensory panel; conditions: 70 ppm compound
Description: Corn curls with cheese flavor with and without addition of the compound of example 1 have been compared by a sensory panel.

[11] = system: sensory panel; test: Effect on vegan cheese, sensory panel; conditions: vegan cheese with 0.2% cheese parmesan natural flavor, 70 ppm compound
Description: Samples of vegan cheese comprising 0.2% cheese parmesan natural flavor have been compared with and without the compound of example 1 by a sensory panel.

[12] = system: sensory panel; test: Effect on soy based vegan burger, sensory panel; conditions: 70 ppm compound
Description: Soy based vegan burgers with and without the compound of example 1 have been tasted by a sensory panel.

[13] = system: sensory panel; test: Effect on processed meat, sensory panel; conditions: 70 ppm compound
Description: Samples of processed meat with full salt flavor and sodium reduced flavor have been tasted by a sensory panel with and without the compound of example 1.
Sample 1 was comprising a full salt flavor base.
Sample 2 was comprising a full salt flavor base and 70 ppm of the compound of example 1.
Sample 3 was comprising a salt reduced (33.3%) flavor base and a saltiness flavor modulator.comprising KCl.
Sample 4 was comprising a salt reduced (33.3%) flavor base, a saltiness flavor modulator.comprising KCl, and 70 ppm of the compound of example 1.

O=C(/C=C/c1c[nH]cn1)NCCc1c[nH]cn1 [Example 1, (2E)-3-(1H-imidazol-4-yl)-N-[2-(1H-imidazol-4-yl)ethyl]prop-2-enamide]
taste effect in water ([1]; 50 ppm or higher, noticeable up to 1000 ppm): slight effect of mouth drying
taste effect in water ([1]; up to 40 ppm): no effect was noticed
taste as such in water ([1]; up to 1000 ppm): no taste as such was perceived, in particular no saltiness
salty taste versus 0.5% NaCl solution [2]: more salty with a mineralic note
upper level at which the salt enhancing effect was perceived [3]: up to 200 ppm
salt enhancement in 0.3% NaCl solution ([3]; 1 ppm or higher): a salt enhancing effect, providing a more lingering, mineralic and fuller salt taste
salt enhancement in 0.3% NaCl solution ([3]; below 1 ppm): No salt enhancement was perceived
saltiness and umami versus savoury model solution [4]: strong boost of saltiness and umami
bitter and salty taste versus 0.3% KCl solution [5]: less bitter and more salty and mineral
acidity of the broth base [6]: The sharp acidity of the broth base was reduced
taste versus model broth base [6]: more mineral and salty
taste versus plain cheese sauce [7]: more mineral and salty, with a mineralic linger, and having a natural aged cheese character
taste versus potato chips without compound [8]: a higher salty impact and a lingering effect
taste versus pure mayonnaise [9]: instant tingly salty with a mineral linger and enhanced acidity
taste versus corn curls without compound [10]: more salty, lingering and mineralic
taste versus vegan cheese without compound [11]: more salty and mineral, and the overall taste is lifted
taste versus vegan burger without compound [12]: more salty, having a mineral linger, contributing well to the perception of a burger
taste of processed meat, sample 2 versus sample 1 ([13]; full salt flavor base): more salty and mineral
taste of processed meat, sample 4 versus sample 1 ([13]; salt reduced (33.3%) flavor base with saltiness flavor modulator comprising KCl): improved salt-peak, increased salinity, prolonged saltiness, significantly reduced bitterness and astringency, and increased salivation

Reference: patent publication US20240409517A1, “ORGANIC COMPOUNDS” (GIVAUDAN SA, priority 2021, published 2024)
